Experimental data: US20140309171A1, “MARKER FOR BLOOD COAGULATION” (Universite Catholique De Louvain, priority 2011, published 2014)
“Also recorded” adds a separate entry of the source.

What was measured:
[1] = system: Ser79 acetyl-CoA carboxylase (ACC) phosphorylation in human platelets; assay: Western blot of phosphorylated (Ser79) ACC in human platelets; format: cell-based; settings: isolated washed human platelets treated with the agonist
Protocol: (§1) Washed human platelets (used in in vitro studies). Platelets were obtained from adult healthy volunteers in accordance with the Ethics Commission of our institution (Commission d'Ethique Biomédicale Hospitalo-Facultaire, Université catholique de Louvain). Whole blood was collected with butterfly needle 21G into Sodium Citrate 1:10 solution (S-monovette). Platelet-rich plasma (PRP) was obtained by 15 min centrifugation at 330 g. The platelets pellet was then washed in Tyrode modified buffer (135 mM NaCl, 12 mM NaHCO3, 1 mM Sodium Citrate, 2.9 mM KCl, 0.3 mM Na2HPO4, 1 mM MgCl2, 5 mM D-glucose, 10 mM Hepes, 0.35% bovine serum albumin (BSA), pH 7.4 at 37° C.) and resuspended to a density of 2.5 10^5 platelets/μl for the measurement of intracellular Ca^2+ or platelet aggregation. For Western Blot analysis, PRP with eptifibatide 4 μg/ml (Integriline, GlaxoSmithKline) and ectonucleotidase apyrase (grade I) 0.5 U/ml was layered over a density barrier of iodixanol (Optiprep®) that allowed the erythrocytes and leucocytes to pellet during centrifugation at 350 g for 15 min. The platelets, because of their small size, sediment much more slowly. After centrifugation at 800 g for 10 min, the resulting pellet was resuspended to a density of 2·10^5 platelets/μl in Tyrode modified buffer before treatment and lysis of samples.
(§2) Proteins were separated as described (Miranda et al. 2010. J Clin Invest 103(6): 879-887). The membranes were probed with the following antibodies: α1/α2 AMPK (Kinasource), phospho-ACC (S79) (1:1000; Cell Signalling), phospho-MLC (S19) (1:10000; Sigma-Aldrich), phospho-VASP (T278) (1:1000; ECM Bioscience), cofilin (Cell Signalling), phospho-cofilin (Ser 3) (Cell Signalling). Bound antibodies were detected by enhanced chemiluminescence (Thermofisher). For each gel, control of loading was realized by immunoblotting using an anti-β-actin (1:10000; Santa Cruz Biotechnology), anti-gelsolin (Santa Cruz Biotechnology) or anti-GAPDH (1:1000; Cell Signalling) antibody after the membranes were stripped. Band intensities were quantified by scanning and processing image intensities with the program ImageJ (1.33 for Mac OS X). The quantification of immunoblots presented in results was obtained after normalization using the internal loading control.
Platelets were isolated from human blood samples as described in the experimental procedures. The isolated platelets were treated with increasing doses of thrombin (0.01, 0.03, 0.1, 0.3 and 1 U/ml), the thromboxane A2 (TXA2) receptor agonist U46619 (0.1, 0.3, 1, 3 and 10 μM), collagen (0.5, 1, 2.5, 5 and 10 μg/ml) or ADP (2.5, 5, 10, 25 nd 50 μM) for 1 min. Following treatment, the platelets were lysed and subjected to Western blotting for determining phosphorylation of Ser79 of ACC.

blood coagulation [2] = assay: Thrombin time (TT) in cardiac surgery patients; format: in vivo, human
Protocol: (§3) A blood sample was drawn during CPB. […] ACT was measured at the bedside of the patients: a sample of blood was drawn, transferred into an appropriate test vial and the clotting time was measured. The second sample was taken 4 h after surgery and the coagulation was assessed in the same time (activated partial thromboplastin time, apTT; thrombin time, TT). Thrombin time (Thromboclotin™, Siemens, Marburg, Germany) and activated partial thromboplastin time (Platelin L; bioMerieux, France) were measured in a tube containing 0.129 M of trisodium citrate and determined using a coagulation device (MDA II coagulation analyzeer; bioMérieux). After surgery, a chest tube was inserted and a closed chest drainage system was attached to promote drainage of air and fluid. Bleeding was evaluated by the amount of blood collected in the chest tube of drainage over a period of 6 h after admission in intensive cares.

blood coagulation [3] = assay: Activated partial thromboplastin time (aPTT) in cardiac surgery patients; format: in vivo, human
Protocol: as §3

[4] = Post-operative bleeding (chest tube drainage) in cardiac surgery patients; format: in vivo, human; settings: patient 6, after restoration of coagulation by protamine administration
Protocol: as §3

[5] = system: VASP phosphorylation in platelets from WT mice; assay: Western blot of VASP phosphorylation in murine platelets; format: cell-based, mouse; settings: thrombin 0.05 U/ml
Protocol: (§4) Eight- to 12-week-old mice were bled under sodium pentobarbital anesthesia (25-35 mg·kg^−1) from the retroorbital plexus. Mouse blood was collected in a 1/10 ACD solution (12 mM citric acid, 15 mM sodium citrate, 25 mM glucose) with ectonucleotidase apyrase (grade I) 0.5 U/ml. PRP was obtained by centrifugation at 800 g for 5 s followed by 5 min at 150 g. PRPs from three animals were pooled. Platelets were washed in Tyrode modified buffer and resuspended to a density of 2.5 10^5 platelets/μl for the measurement of platelet aggregation and for Western Blot analysis. At least three independent experiments were performed on PRP from different pools.
as §2, with “For each gel, control of loading was realized by immunoblotting using an anti-β-actin (1:10000; Santa Cruz Biotechnology), anti-gelsolin (Santa Cruz Biotechnology) or anti-GAPDH (1:1000; Cell Signalling) antibody after the membranes were stripped.” left out

[6] = system: myosin light chain (MLC) Ser 19 phosphorylation; assay: Western blot of MLC Ser19 phosphorylation in human platelets; format: cell-based; settings: human platelets, 0.1 U/ml thrombin, significant after 2 min, persisted till 10 min
Protocol: (§5) Washed human platelets (used in in vitro studies). Platelets were obtained from adult healthy volunteers in accordance with the Ethics Commission of our institution (Commission d'Ethique Biomédicale Hospitalo-Facultaire, Université catholique de Louvain). Whole blood was collected with butterfly needle 21G into Sodium Citrate 1:10 solution (S-monovette). Platelet-rich plasma (PRP) was obtained by 15 min centrifugation at 330 g. The platelets pellet was then washed in Tyrode modified buffer (135 mM NaCl, 12 mM NaHCO3, 1 mM Sodium Citrate, 2.9 mM KCl, 0.3 mM Na2HPO4, 1 mM MgCl2, 5 mM D-glucose, 10 mM Hepes, 0.35% bovine serum albumin (BSA), pH 7.4 at 37° C.) and resuspended to a density of 2.5 10^5 platelets/μl for the measurement of intracellular Ca^2+ or platelet aggregation. […]
(§6) Proteins were separated as described (Miranda et al. 2010. J Clin Invest 103(6): 879-887). […] Bound antibodies were detected by enhanced chemiluminescence (Thermofisher). […] Band intensities were quantified by scanning and processing image intensities with the program ImageJ (1.33 for Mac OS X). The quantification of immunoblots presented in results was obtained after normalization using the internal loading control.

[7] = system: VASP Thr 278 phosphorylation; assay: Western blot of VASP Thr278 phosphorylation in human platelets; format: cell-based; settings: human platelets, 0.1 U/ml thrombin
Protocol: as §5, §6

[8] = system: MLC phosphorylation in platelets from WT mice; assay: Western blot of MLC phosphorylation in murine platelets; format: cell-based, mouse; settings: thrombin 0.05 U/ml
Protocol: as §4
as §2, with “For each gel, control of loading was realized by immunoblotting using an anti-β-actin (1:10000; Santa Cruz Biotechnology), anti-gelsolin (Santa Cruz Biotechnology) or anti-GAPDH (1:1000; Cell Signalling) antibody after the membranes were stripped.” left out

[9] = system: cofilin phosphorylation in platelets from WT mice; assay: Western blot of cofilin phosphorylation in murine platelets; format: cell-based, mouse; settings: thrombin 0.05 U/ml
Protocol: as §4
as §2, with “For each gel, control of loading was realized by immunoblotting using an anti-β-actin (1:10000; Santa Cruz Biotechnology), anti-gelsolin (Santa Cruz Biotechnology) or anti-GAPDH (1:1000; Cell Signalling) antibody after the membranes were stripped.” left out

[10] = system: cofilin Ser3 phosphorylation; assay: Western blot of cofilin Ser3 phosphorylation in human platelets; format: cell-based; settings: human platelets, 0.1 U/ml thrombin, maximal at 1 min, persisted for 10 min
Protocol: as §5, §6

AMPK = AMPK enzyme assay after immunoprecipitation from platelet extracts; format: cell-based; settings: human platelets treated with 0.1 U/ml thrombin
Protocol: AMPK was immunoprecipitated with 10 μg of α1-AMPK or α2-AMPK antibodies (Kinasource) from 50 μg of platelet extracts and assayed in a final volume of 50 μl Hepes 50 mM, pH 7.2, with 0.2 mM SAMS peptide (Substrate for AMP-activated Protein Kinase, Tocris Bioscience), 0.2 mM adenosine 5′-monophosphate (AMP), and 0.1 mM [^32P]MgATP (specific radioactivity: 1000 cpm/pmol; Perkin Elmer) at 30° C. Aliquots (10 μl) were removed and spotted onto Whatman P81 papers for measurement of ^32P incorporation. One unit of protein kinase activity corresponds to the incorporation of 1 nmol of phosphate into the appropriate peptide substrate per min under the assay conditions.
AMPK was immunoprecipitated with anti-α1- and anti-α2-AMPK antibodies prior to AMPK assay. The AMPK catalytic α1-subunit isoform accounted for the total AMPK activity in platelets (FIG. 1B), confirming the immunoblotting results.

washed human platelets = assay: Platelet aggregation, light transmission (Chrono-Log Aggregometer); format: cell-based; settings: 0.025 U/ml thrombin alone
Protocol: as §1
Light transmission during thrombin-induced platelet aggregation in human and murine PRP was recorded with a Chrono-Log Aggregometer at 37° C., under stirring condition (1200 crpm). The platelet suspension was incubated with dimethyl sulfoxide (DMSO, vehicle) or STO-609 (10 μM, Tocris) for 2 min before the addition of the thrombin (+/−0.03 U/ml). CaCl2 2 mM was added prior to the agonists.
To evaluate the potential implication of CaMKKβ in platelet aggregation, washed human platelets were pre-incubated for 2 min with 10 μM STO-609, prior to treatment with thrombin or ADP.

blood coagulation [11] = assay: Activated coagulation time (ACT) in cardiac surgery patients; format: in vivo, human
Protocol: as §3

[12] = patient 6, after protamine injection
[13] = n = 29 patients, during surgery, after 47086±17766 UI UFH
[14] = patient 1, during surgery, UFH 17000 units
[15] = patient 2, during surgery, UFH 33000 units
[16] = patient 3, during surgery, UFH 25500 units
[17] = patient 4, during surgery, UFH 10000 units
[18] = patient 5, during surgery, UFH 25000 units
[19] = patient 6, during surgery, UFH 41000 units

With `CCCCC[C@H](O)/C=C/[C@@H]1[C@@H](C/C=C\CCCC(=O)O)[C@H]2CO[C@@H]1C2` [U46619] as the compound, how does the “Ser79 ACC phosphorylation induced by platelet agonist” value (from here on “Ser79 ACC phosphorylation induced”) [1] read?
The value was “not observed; also recorded: failed to increase”.

For protamine, which TT (blood coagulation [2]; [12]) is on record?
Its TT is 30 s.

And the aPTT (blood coagulation [3]; [12])?
The aPTT was 27 s.

And the Bleeding [4]?
Its Bleeding is “controlled”.

Which “Ser79 ACC phosphorylation induced” value [1] does the source give for `Nc1ncnc2c1ncn2[C@@H]1O[C@H](COP(=O)(O)OP(=O)(O)O)[C@@H](O)[C@H]1O` [ADP, adenosine diphosphate] here?
The value was “not observed; also recorded: not lead to ACC phosphorylation; also recorded: failed to increase”.

Which “Ser79 ACC phosphorylation induced” value [1] does the source give for collagen here?
Its value is “not observed; also recorded: failed to increase”.

With thrombin as the compound, how does the “phosphorylation of VASP induced by agonist” value [5] read?
Its value is “increase”.

What about the “MLC Ser 19 phosphorylation induced by agonist” value [6] of the same compound?
Its value is “increase”.

And the “Ser79 ACC phosphorylation induced” value [1]?
Its value is “increased; also recorded: specifically induced”.

And the “VASP phosphorylation on Thr 278 induced by agonist” value [7]?
The value was “significant increased phosphorylation”.

What about the “phosphorylation of MLC induced by agonist” value [8] of the same compound?
Its value is “increase”.

What about the “phosphorylation of cofilin induced by agonist” value [9] of the same compound?
The value was “increase”.

What about the “cofilin phosphorylation in Ser3 induced by agonist” value [10] of the same compound?
Its value is “increase”.

What about the AMPK activation (AMPK) of the same compound?
Its AMPK activation is “led to AMPK activation; also recorded: induces AMPK activation”.

And the “platelet aggregation, % of aggregation” value (washed human platelets)?
The value was 69±3%.

Which “TT, mean” value (blood coagulation [2]; [13]) does the source give for unfractionated heparin [UFH] here?
The value was over 120 s.

And the TT (blood coagulation [2]; [14])?
The TT was over 120 s.

And the TT (blood coagulation [2]; [15])?
Its TT is over 120 s.

And the TT (blood coagulation [2]; [16])?
The TT was over 120 s.

What about the TT (blood coagulation [2]; [17]) of the same compound?
Its TT is over 120 s.

And the TT (blood coagulation [2]; [18])?
Its TT is over 120 s.

What about the TT (blood coagulation [2]; [19]) of the same compound?
The TT was over 120 s.

What about the “TT, mean” value (blood coagulation [2]; patients 1-6, during surgery, after 25250±11000 UI UFH) of the same compound?
The value was over 120 s.

And the “ACT, mean” value (blood coagulation [11]; mean of patients 1-6, during surgery, after 25250±11000 UI UFH)?
The value was 568 ± 65 s.

And the “ACT, mean” value (blood coagulation [11]; [13])?
The value was 594 ± 100 s.

What about the ACT (blood coagulation [11]; [14]) of the same compound?
The ACT was 485 s.

What about the ACT (blood coagulation [11]; [15]) of the same compound?
The ACT was 523 s.

What about the ACT (blood coagulation [11]; [16]) of the same compound?
The ACT was 635 s.

What about the ACT (blood coagulation [11]; [17]) of the same compound?
Its ACT is 498 s.

What about the ACT (blood coagulation [11]; [18]) of the same compound?
Its ACT is 698 s.

And the ACT (blood coagulation [11]; [19])?
The ACT was 568 s.

What about the aPTT (blood coagulation [3]; [14]) of the same compound?
Its aPTT is over 180 s.

What about the aPTT (blood coagulation [3]; patient 2, 4 h after surgery, UFH 33000 units) of the same compound?
The aPTT was over 180 s.

What about the aPTT (blood coagulation [3]; [16]) of the same compound?
Its aPTT is over 180 s.

What about the aPTT (blood coagulation [3]; [17]) of the same compound?
Its aPTT is over 180 s.

What about the aPTT (blood coagulation [3]; [18]) of the same compound?
Its aPTT is over 180 s.

And the aPTT (blood coagulation [3]; [19])?
The aPTT was over 180 s.
